Consider 15 compounds from PubChem BioAssay AID328 (DTP/NCI, 2004).

Where “and” joins values, the source holds several entries; their conditions need not be identical. Identical values can stand only once. Inconclusive results and toxic doses are left out. Residues, ends and D or L forms follow the SMILES beside them.

The test system of the assay is BDF1 mice, P388 leukemia ip, median survival T/C. The assay is described as follows: NCI In Vivo Anticancer Drug Screen. Data for tumor model P388 Leukemia (intraperitoneal) in B6D2F1 (BDF1) mice. The conditions noted are these: endpoint: median survival time, higher = longer survival. In outline:
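Transplantable tumour in mice; compound vs vehicle dosing; survival scored; ratio of treated to control reported.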

Setting [1] is: dose: 200.0 mg/kg/injection, schedule: Q04DX003 (ip), vehicle: Klucel (hydroxypropylcellulose) (HPC).
Where [2] appears, read: dose: 400.0 mg/kg/injection, schedule: Q04DX003 (ip), vehicle: Klucel (hydroxypropylcellulose) (HPC).
Setting [3] is: dose: 50.0 mg/kg/injection, schedule: Q01DX009 (ip), vehicle: saline with Tween-80.
[4] abbreviates: dose: 50.0 mg/kg/injection, schedule: Q04DX003 (ip), vehicle: saline.
Setting [5] is: dose: 100.0 mg/kg/injection, schedule: Q01DX001 (ip), vehicle: Klucel (hydroxypropylcellulose) (HPC).
The mark [6] stands for this setting: dose: 100.0 mg/kg/injection, schedule: Q04DX003 (ip), vehicle: Klucel (hydroxypropylcellulose) (HPC).
[7] abbreviates: dose: 200.0 mg/kg/injection, schedule: Q01DX001 (ip), vehicle: Klucel (hydroxypropylcellulose) (HPC).
Setting [8] is: dose: 100.0 mg/kg/injection, schedule: Q04DX003 (ip), vehicle: saline.
Setting [9] is: dose: 200.0 mg/kg/injection, schedule: Q04DX003 (ip), vehicle: saline.

As for `Cc1cc(N)c2cc(NC(=O)CCCCCCCCC(=O)Nc3ccc4nc(C)cc(N)c4c3)ccc2n1`, the T/C by setting is: (dose: 5.5 mg/kg/injection, schedule: Q01DX009 (ip), vehicle: Klucel (hydroxypropylcellulose) (HPC)) 108 % of control; (dose: 8.2 mg/kg/injection, schedule: Q01DX009 (ip), vehicle: Klucel (hydroxypropylcellulose) (HPC)) 121 % of control; (dose: 8.3 mg/kg/injection, schedule: Q04DX003 (ip), vehicle: Klucel (hydroxypropylcellulose) (HPC)) 91 % of control; (dose: 12.0 mg/kg/injection, schedule: Q04DX003 (ip), vehicle: Klucel (hydroxypropylcellulose) (HPC)) 104 % of control; (dose: 45.0 mg/kg/injection, schedule: Q04DX003 (ip), vehicle: Klucel (hydroxypropylcellulose) (HPC)) 150 % of control; (dose: 50.0 mg/kg/injection, schedule: Q01DX009 (ip), vehicle: Klucel (hydroxypropylcellulose) (HPC)) 186 % of control. The T/C reads like this: (dose: 80.0 mg/kg/injection, schedule: Q04DX003 (ip), vehicle: Klucel (hydroxypropylcellulose) (HPC)) 168 % of control; (dose: 100.0 mg/kg/injection, schedule: Q04DX003 (ip), vehicle: other) 172 % of control; (dose: 120.0 mg/kg/injection, schedule: Q04DX003 (ip), vehicle: Klucel (hydroxypropylcellulose) (HPC)) 172 % of control; (dose: 180.0 mg/kg/injection, schedule: Q04DX003 (ip), vehicle: Klucel (hydroxypropylcellulose) (HPC)) 177 % of control; under setting [1], 150 % of control; (dose: 200.0 mg/kg/injection, schedule: Q04DX003 (ip), vehicle: other) 181 % of control. Moreover, the T/C runs as follows: (dose: 264.0 mg/kg/injection, schedule: Q04DX003 (ip), vehicle: Klucel (hydroxypropylcellulose) (HPC)) 227 % of control; (dose: 400.0 mg/kg/injection, schedule: Q01DX009 (ip), vehicle: Klucel (hydroxypropylcellulose) (HPC)) 160 % of control; under setting [2], 261 % of control and 160 % of control; (dose: 400.0 mg/kg/injection, schedule: Q04DX003 (ip), vehicle: other) 186 % of control.
For the compound `Cc1ccc(CNc2cc(C)ccn2)cc1`, the T/C (dose: 50.0 mg/kg/injection, schedule: Q04DX003 (ip), vehicle: saline with Tween-80) is 105 % of control; the T/C (dose: 100.0 mg/kg/injection, schedule: Q04DX003 (ip), vehicle: saline with Tween-80) was 110 % of control; the T/C (dose: 200.0 mg/kg/injection, schedule: Q04DX003 (ip), vehicle: saline with Tween-80) was 110 % of control.
For the compound `Cc1cc(C)c(C)c(Br)c1`, the T/C runs as follows: under setting [3], 100 % of control; (dose: 100.0 mg/kg/injection, schedule: Q01DX009 (ip), vehicle: saline with Tween-80) 104 % of control.
Consider `COc1ccc(C(C)=O)cc1OCc1ccccc1`, for which the T/C runs as follows: (dose: 50.0 mg/kg/injection, schedule: Q01DX009 (ip), vehicle: water) 114 % of control; (dose: 100.0 mg/kg/injection, schedule: Q01DX009 (ip), vehicle: water) 109 % of control; (dose: 100.0 mg/kg/injection, schedule: Q04DX003 (ip), vehicle: water) 102 % of control; (dose: 200.0 mg/kg/injection, schedule: Q01DX009 (ip), vehicle: water) 119 % of control; (dose: 200.0 mg/kg/injection, schedule: Q04DX003 (ip), vehicle: water) 102 % of control; (dose: 400.0 mg/kg/injection, schedule: Q01DX009 (ip), vehicle: water) 111 % of control. Moreover, the T/C (dose: 400.0 mg/kg/injection, schedule: Q04DX003 (ip), vehicle: water) is 111 % of control.
In the case of `COc1ccc(-c2csc(=[N+]3CCCCC3)s2)cc1`, the T/C was 105 % of control (dose: 12.5 mg/kg/injection, schedule: Q04DX003 (ip), vehicle: saline); 122 % of control (dose: 25.0 mg/kg/injection, schedule: Q04DX003 (ip), vehicle: saline); 87 % of control under setting [4].
As to `C=CCCc1cc(C(=O)N(c2ccccc2)C(C(=O)O)c2ccccc2)ccc1OC` (configuration not stated), the T/C (dose: 100.0 mg/kg/injection, schedule: Q04DX002 (ip), vehicle: saline with Tween-80) is 101 % of control; the T/C (dose: 200.0 mg/kg/injection, schedule: Q04DX002 (ip), vehicle: saline with Tween-80) is 100 % of control; the T/C (dose: 400.0 mg/kg/injection, schedule: Q04DX002 (ip), vehicle: saline with Tween-80) was 108 % of control.
For `Cc1ccc(C[n+]2cccc3c([N+](=O)[O-])cccc32)cc1`, the T/C was 108 % of control (dose: 12.5 mg/kg/injection, schedule: Q01DX009 (ip), vehicle: saline with Tween-80); 103 % of control (dose: 25.0 mg/kg/injection, schedule: Q01DX009 (ip), vehicle: saline with Tween-80); 113 % of control under setting [3].
Regarding `CC(C)C(N)C(=O)NC(CO)C(=O)O` (stereo not drawn) (H-Val-Ser-OH; configuration not given here), the T/C is 99 % of control (dose: 50.0 mg/kg/injection, schedule: Q01DX005 (ip), vehicle: saline); 106 % of control (dose: 100.0 mg/kg/injection, schedule: Q01DX005 (ip), vehicle: saline); 92 % of control (dose: 200.0 mg/kg/injection, schedule: Q01DX005 (ip), vehicle: saline).
As to `O=C(O)CCCCCNC(=O)c1ccccc1`, the T/C (dose: 50.0 mg/kg/injection, schedule: Q04DX003 (ip), vehicle: Klucel (hydroxypropylcellulose) (HPC)) was 118 % of control; the T/C under setting [5] was 100 % of control; the T/C under setting [6] is 100 % of control; the T/C under setting [7] was 104 % of control; the T/C under setting [1] was 100 % of control; the T/C (dose: 400.0 mg/kg/injection, schedule: Q01DX001 (ip), vehicle: Klucel (hydroxypropylcellulose) (HPC)) was 100 % of control.
As for `COc1c(C(C)(C)C)cc([N+](=O)[O-])c(C)c1[N+](=O)[O-]`, the T/C was 100 % of control under setting [6], 100 % of control under setting [1] and 95 % of control under setting [2].
As for `O=C(NCCNC(=O)c1cccnc1)c1ccncc1`, the T/C reads like this: (dose: 100.0 mg/kg/injection, schedule: Q01DX001 (ip), vehicle: saline) 90 % of control; (dose: 200.0 mg/kg/injection, schedule: Q01DX001 (ip), vehicle: saline) 90 % of control; (dose: 400.0 mg/kg/injection, schedule: Q01DX001 (ip), vehicle: saline) 90 % of control.
For `NCCCCS(=O)(=O)Nc1ccc(Nc2c3ccccc3nc3cc([N+](=O)[O-])ccc23)cc1`, the T/C by setting is: (dose: 2.93 mg/kg/injection, schedule: Q04DX003 (ip), vehicle: saline) 122 % of control; (dose: 33.0 mg/kg/injection, schedule: Q04DX003 (ip), vehicle: saline) 154 % of control; under setting [4], 154 % of control; (dose: 75.0 mg/kg/injection, schedule: Q04DX003 (ip), vehicle: saline) 172 % of control; under setting [8], 161 % of control; under setting [9], 161 % of control.
Consider `C=C(C)C(=O)/C(=C/C(=O)O)OC`, for which the T/C reads like this: (dose: 12.5 mg/kg/injection, schedule: Q01DX010 (ip), vehicle: saline) 113 % of control; (dose: 25.0 mg/kg/injection, schedule: Q01DX010 (ip), vehicle: saline) 109 % of control; (dose: 50.0 mg/kg/injection, schedule: Q01DX010 (ip), vehicle: saline) 118 % of control.
Consider `Nc1nc(=S)c2[nH]c(N=Nc3ccc(S(=O)(=O)Nc4nccs4)cc3)nc2[nH]1`, for which the T/C was 115 % of control (dose: 25.0 mg/kg/injection, schedule: Q01DX001 (ip), vehicle: Klucel (hydroxypropylcellulose) (HPC)); 117 % of control under setting [5]; 120 % of control under setting [7].
With `O=C1C2C3CC4C2C(=O)C2C1C3C42` (configuration not stated), the T/C was 90 % of control under setting [8]; 102 % of control under setting [9]; 90 % of control (dose: 400.0 mg/kg/injection, schedule: Q04DX003 (ip), vehicle: saline).
